Measurements as given in patent EP0414688B1, “PROCESS FOR REGULATING THE ABSORPTION RATE OF DRUGS AND A PHARMACEUTICAL FORMULATION” (NEUVONEN, Pertti J., priority 1988, dated 1989).

Columns and labels:
[1] = cross-over study of oral absorption with concomitant magnesium hydroxide; format: in vivo, test persons
Protocol: In persons having a poor absorption of fenamates the increase of peak concentrations of e.g. tolfenamic acid can be up to 10-fold through the action of magnesium hydroxide (fig. 4).
Since medicines are generally taken with water, the administration of pharmaceutical tablets in the above tests was immediately followed by 150 ml of water with magnesium hydroxide blended therein.

[2] = Pentikainen et al., European Journal of Clinical Pharmacology 1984; cited from earlier work

Compound | rate of absorption ([1]; ibuprofen 400 mg (tabl. BURANA), concomitant ingestion of Mg-hydroxide) | absorption from alimentary canal [2] | increase of peak concentrations through the action of magnesium hydroxide ([1]; human, in vivo)
CC(C)Cc1ccc(C(C)C(=O)O)cc1 (stereo not drawn) [ibuprofen] | accelerated significantly |  | 
Cc1c(Cl)cccc1Nc1ccccc1C(=O)O [tolfenamic acid] |  | relatively slow | up to 10 fold
